Assay results published in paper PMC8086230 (Acta Pharmacologica Sinica, 2021).
Where two headings read alike, the source gives them in different places. One block for each compound: values may come before it.

Legend:
[1] = not given; remark: listed apart in the source
mock HEK-293 cells = test: Passive diffusion in mock HEK-293 cells; format: in vitro ADME, human
[2] = BCS classification stated in the discussion
human renal 11β-HSD2 = target: T1, human renal 11β-HSD2 (Homo sapiens, UniProt P80365); format: biochemical; details: read-out: Km for human 11β-HSD2
T1 sequence (P80365 1-405): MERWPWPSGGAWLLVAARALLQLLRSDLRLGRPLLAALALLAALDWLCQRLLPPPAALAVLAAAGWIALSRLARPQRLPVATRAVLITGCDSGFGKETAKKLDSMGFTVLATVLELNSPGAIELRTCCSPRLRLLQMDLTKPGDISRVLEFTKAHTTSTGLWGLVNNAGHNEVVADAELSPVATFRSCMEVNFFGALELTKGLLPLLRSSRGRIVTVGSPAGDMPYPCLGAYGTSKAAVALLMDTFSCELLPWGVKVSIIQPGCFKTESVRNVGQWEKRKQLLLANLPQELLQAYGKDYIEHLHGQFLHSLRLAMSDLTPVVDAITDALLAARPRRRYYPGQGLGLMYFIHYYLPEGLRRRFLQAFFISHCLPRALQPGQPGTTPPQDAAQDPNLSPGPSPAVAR

[3] = after orally dosing LianhuaQingwen, 12 capsules/person

Detection in rat plasma or urine samples (rat, in vivo, po): not detected
Detection in human plasma and urine samples ([1]; in vivo, po): not detected
Compound: 22α-hydroxyglycyrrhetic acid-3-O-sulfate

Detection in rat plasma or urine samples (rat, in vivo, po): not detected
Detection in human plasma and urine samples ([1]; in vivo, po): not detected
Compound: CC1(C(=O)OC2OC(C(=O)O)C(O)C(O)C2O)CC(O)C2(C)CCC3(C)C(=CC(=O)C4C5(C)CCC(OS(=O)(=O)O)C(C)(C)C5CCC43C)C2C1 (stereo not drawn) [22α-hydroxyglycyrrhetic acid-3-O-sulfate-30-O-glucuronide]

Presence in rat samples (rat, in vivo, po): Plasma, bile, urine, feces
transport rate, membrane permeation in mock cells (mock HEK-293 cells): < 5 pmol·min^−1·mg^−1 protein
BCS Class [2]: BCS Class III
Presence in human samples ([1]; in vivo, po): Plasma, urine, feces
Compound: CC1(C)[C@@H](O[C@H]2O[C@H](C(=O)O)[C@@H](O)[C@H](O)[C@H]2O[C@@H]2O[C@H](C(=O)O)[C@@H](O)[C@H](O)[C@H]2O)CC[C@]2(C)[C@H]3C(=O)C=C4[C@@H]5C[C@@](C)(C(=O)O)CC[C@]5(C)CC[C@@]4(C)[C@]3(C)CC[C@@H]12 [Compound 1, Glycyrrhizin]

Presence in rat samples (rat, in vivo, po): Plasma, bile, urine, feces
Compound: CC1(C)[C@@H](O[C@@H]2O[C@H](C(=O)O)[C@@H](O)[C@H](O)[C@H]2O[C@@H]2O[C@H](C(=O)O)[C@@H](O)[C@H](O)[C@H]2O)CC[C@]2(C)[C@H]3C(=O)C=C4[C@@H]5C[C@](C)(C(=O)O)CC[C@]5(C)CC[C@@]4(C)[C@]3(C)CC[C@@H]12 [Compound 3, Licorice saponin H2]

Presence in rat samples (rat, in vivo, po): Plasma, bile, urine, feces
transport rate, membrane permeation in mock cells (mock HEK-293 cells; human, 10 min, 50 µmol/L): < 5 pmol·min^−1·mg^−1 protein
BCS Class [2]: BCS Class III
Presence in human samples ([1]; in vivo, po): Plasma, urine
Compound: O=C1C[C@@H](c2ccc(O[C@@H]3O[C@H](CO)[C@@H](O)[C@H](O)[C@H]3O)cc2)Oc2cc(O)ccc21 [Compound 21, Liquiritin]

Compound: O=C(/C=C/c1ccc(O[C@@H]2O[C@H](CO)[C@@H](O)[C@H](O)[C@H]2O)cc1)c1ccc(O)cc1O [Compound 24, Isoliquiritin]
Presence in rat samples (after orally dosing LianhuaQingwen, 3.78 g/kg): Plasma, bile, urine, feces
Presence in human samples [1, 3]: Plasma, urine

Presence in human samples [1, 3]: Plasma, urine, feces
Compound: O=C(/C=C/c1ccc(O)cc1)c1ccc(O)cc1O [Compound 26, Isoliquiritigenin]

Presence in human samples ([1]; in vivo, po): Urine
Compound: O=C(CCc1ccc(O)cc1)c1ccc(O)cc1O [Compound M27R, Davidigenin]

Km (human renal 11β-HSD2): 0.045 µM
Compound: C[C@]12CCC(=O)C=C1CC[C@@H]1[C@@H]2[C@@H](O)C[C@@]2(C)[C@H]1CC[C@]2(O)C(=O)CO [cortisol]
